Results: ChEMBL document CHEMBL1201862, “PubChem BioAssay data set” (2004)
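The compound was tested at five concentrations on cells cultured in 96-well plates, with a 48-hour exposure period. At the GI50, growth is halved.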 Calls of active or inactive are those of the source. Cut-off read from the data, not from the text of the source: active = GI50 up to about 1.1 µM and inactive = higher.

How the values were obtained:
Test in all cases: NCI-60 cell line screen, 48 h
KM-20L2 = system: KM-20L2
DMS-114 = system: DMS-114
DMS-273 = system: DMS-273
DLD-1 = system: DLD-1
M19-MEL = system: M19-MEL
XF498 = system: XF498
HOP-18 = system: HOP-18
SNB-78 = system: SNB-78
RXF 631 = system: RXF 631

SMILES | GI50 (KM-20L2) | GI50 (DMS-114) | GI50 (DMS-273) | GI50 (DLD-1) | GI50 (M19-MEL) | GI50 (XF498) | GI50 (HOP-18) | GI50 (SNB-78) | GI50 (RXF 631)
CC#Cc1c(C#CC)c(OC)c2c(c1OC)C(=O)c1ccccc1C2=O | > 100 µM (inactive) | 20.7 µM (inactive) | 22.8 µM (inactive) | 76 µM (inactive) | > 100 µM (inactive) | > 100 µM (inactive) |  |  | 
O=C(Nc1cc(C(F)(F)F)ccc1Cl)C(=O)C(C(=O)c1ccc2ccccc2c1)C1OC(=O)c2ccccc21 (stereo not given) | 20.4 µM (inactive) | 11.4 µM (inactive) |  | 9.82 µM (inactive) | 11.8 µM (inactive) |  |  |  | 
NNC(=S)N/N=C(/C(=O)Nc1cc(Cl)ccc1Cl)C1C(=O)Nc2ccccc2[S+]1[O-] (stereo not given) | > 100 µM (inactive) | > 100 µM (inactive) |  | > 100 µM (inactive) | > 100 µM (inactive) | > 100 µM (inactive) | > 100 µM (inactive) | > 100 µM (inactive) | 
CCN1CCC(O)(c2ccc(OC)cc2)C(C(=O)c2ccc(OC)cc2)C1 (stereo not given) | 18.6 µM (inactive) | 18.7 µM (inactive) | 22.8 µM (inactive) | 16.9 µM (inactive) | 18.3 µM (inactive) | 17.6 µM (inactive) |  | 26.1 µM (inactive) | 21.5 µM (inactive)
Cc1cccc(C)c1NC(=O)CCCC(=O)C1/C(=N/NC(=O)CC#N)CCC/C1=N\NC(=O)CC#N (stereo not given) | > 100 µM (inactive) | > 100 µM (inactive) | > 100 µM (inactive) | > 100 µM (inactive) | > 100 µM (inactive) | > 100 µM (inactive) | > 100 µM (inactive) | > 100 µM (inactive) | > 100 µM (inactive)
Cc1cc2c(Br)cc(Br)c(O)c2nc1C(=O)c1ccccc1 | 28.4 µM (inactive) | 31.6 µM (inactive) | 19 µM (inactive) | 36.6 µM (inactive) | 17.7 µM (inactive) |  | 18.5 µM (inactive) | 50.1 µM (inactive) | 
CCCCC/C=C1\CCC(CN(C)C)C1=O (stereo not given) | 15.1 µM (inactive) | 13.5 µM (inactive) | 13.6 µM (inactive) | 3.73 µM (inactive) | 10.4 µM (inactive) | 14.9 µM (inactive) | 24 µM (inactive) | 19.7 µM (inactive) | 14.7 µM (inactive)
CCCCCCCCCCCC(=O)OCCOCCOCCOCCOCCOC(=O)CCCCCCCCCCC | > 100 µM (inactive) | > 100 µM (inactive) | > 100 µM (inactive) | > 100 µM (inactive) | > 100 µM (inactive) |  | > 100 µM (inactive) | > 100 µM (inactive) | > 100 µM (inactive)
COc1cc2cc(c1Cl)N(C)C(=O)C[C@H](OC(=O)[C@H](C)N(C)C(C)=O)[C@]1(C)O[C@H]1[C@H](C)[C@@H]1C[C@@](O)(NC(=O)O1)[C@H](OC)/C=C/C=C(/C)C2 | 0.0308 µM (active) | 0.0323 µM (active) | 0.01 µM (active) | 0.025 µM (active) | 0.0628 µM (active) | 0.0628 µM (active) | 0.695 µM (active) | 0.025 µM (active) | 
C/C(CN1C(=O)c2ccccc2C1=O)=N\NS(=O)(=O)c1ccc(F)cc1 | > 100 µM (inactive) | > 100 µM (inactive) | > 100 µM (inactive) | > 100 µM (inactive) |  | > 100 µM (inactive) | > 100 µM (inactive) | > 100 µM (inactive) | 
CCOC(=O)Cc1csc(Nc2ccc(OCC)cc2)n1 | > 100 µM (inactive) | 69.2 µM (inactive) |  | > 100 µM (inactive) | > 100 µM (inactive) | 38.7 µM (inactive) | > 100 µM (inactive) | > 100 µM (inactive) | > 100 µM (inactive)
CCC1(OC(=O)CNC)C(=O)OCc2c1cc1n(c2=O)Cc2cc3ccccc3nc2-1 (stereo not given) | 0.0336 µM (active) |  | < 0.01 µM (active) | 0.294 µM (active) |  |  | 0.0177 µM (active) | 0.263 µM (active) | < 0.01 µM (active)
N#CCc1nnc(N)o1 | > 100 µM (inactive) |  | > 100 µM (inactive) | > 100 µM (inactive) | > 100 µM (inactive) | > 100 µM (inactive) |  | > 100 µM (inactive) | > 100 µM (inactive)
Cc1c(CCl)c(=O)oc2c(C)c3occ(CCl)c(=O)c3cc12 | > 100 µM (inactive) | 20.2 µM (inactive) |  |  | 16.2 µM (inactive) |  | 17.4 µM (inactive) |  | 16 µM (inactive)
CCCCCCCc1cc(OC(=O)c2c(C)cc(OC)cc2O)cc(O)c1C(=O)O | 21.2 µM (inactive) |  | 28.8 µM (inactive) | 19.8 µM (inactive) | 23.6 µM (inactive) |  |  | 29.2 µM (inactive) | 25.5 µM (inactive)
O=C(NCCS(=O)(=O)N1C(=O)C2CCCN2C(=O)[C@@H]1Cc1ccccc1)OCc1ccccc1 (stereo not given in full) | 45.8 µM (inactive) | 22.4 µM (inactive) |  | > 100 µM (inactive) |  | 0.838 µM (active) | > 100 µM (inactive) | 61.9 µM (inactive) | 45.6 µM (inactive)
CN(C)CCn1c2ccccc2c2nc3cc4ccccc4cc3nc21 | 3.3 µM (inactive) | 6.47 µM (inactive) | 3.13 µM (inactive) | 3.81 µM (inactive) | 8.73 µM (inactive) | 7.66 µM (inactive) |  |  | 
O=C1CC2C(=O)N(Cc3ccccc3)C1C=C2S(=O)(=O)c1ccccc1 (stereo not given) | > 100 µM (inactive) | > 100 µM (inactive) |  | > 100 µM (inactive) | > 100 µM (inactive) | > 100 µM (inactive) | > 100 µM (inactive) | > 100 µM (inactive) | 
COc1ccc(C2=C3c4cc(OC)c(OC)cc4CCN3C(=S)SS2)cc1OC | 75.9 µM (inactive) | 65.2 µM (inactive) | 43.5 µM (inactive) | 33.7 µM (inactive) | 53.2 µM (inactive) |  | > 100 µM (inactive) | 80.4 µM (inactive) | 
C/C=C/C=N/N(C(=O)c1cc([N+](=O)[O-])cc([N+](=O)[O-])c1)C1=NN=C(c2ccccc2)C(c2ccccc2)N1 (stereo not given) | 32.1 µM (inactive) | 21 µM (inactive) | 46 µM (inactive) | 75.7 µM (inactive) | 21.6 µM (inactive) | 36 µM (inactive) | > 100 µM (inactive) | 52.8 µM (inactive) | > 100 µM (inactive)
CN(C)c1c([O-])c(=[N+](C)C)c1=O |  |  | > 100 µM (inactive) |  |  | > 100 µM (inactive) |  | > 100 µM (inactive) | 
C=C1CC(c2ccc(O)c(OC)c2)Oc2c(OC)cccc21 (stereo not given) | > 100 µM (inactive) | 20.4 µM (inactive) | 18.3 µM (inactive) | 37 µM (inactive) | 48 µM (inactive) |  | > 100 µM (inactive) | 33.2 µM (inactive) | 
CC(C)(C)OC1=C(OC(C)(C)C)C(O)(c2ccc(Cl)cc2)C1=O (stereo not given) |  | > 100 µM (inactive) | > 100 µM (inactive) | > 100 µM (inactive) | > 100 µM (inactive) |  | > 100 µM (inactive) | > 100 µM (inactive) | 86.5 µM (inactive)
C=C1C[C@]23CCC4C(C)(C)C(=O)CC[C@]4(C)C2C[C@H]1C(O)C3=O (stereo not given in full) | > 75 µM (inactive) |  |  | > 75 µM (inactive) | > 75 µM (inactive) | > 75 µM (inactive) | > 75 µM (inactive) | > 75 µM (inactive) | > 75 µM (inactive)
C[C@H]1CCC2C(CN3CCCCC3)C(=O)OC2[C@]2(C)C(=O)CC(N3CCCCC3)C12O (stereo not given in full) | 7.91 µM (inactive) | 3.2 µM (inactive) | 3.57 µM (inactive) | 3.34 µM (inactive) | 5.3 µM (inactive) |  | 29 µM (inactive) | 4.41 µM (inactive) | 1.28 µM (inactive)
O=C1c2ccc(O)cc2C(=O)c2ccc(O)cc21 |  | 95.9 µM (inactive) | 49.2 µM (inactive) | 38.6 µM (inactive) | > 100 µM (inactive) | > 100 µM (inactive) |  | > 100 µM (inactive) | 75 µM (inactive)
